Experimental data reported in article PMC7673680, “Small-molecule sequestration of amyloid-β as a drug discovery strategy for Alzheimer’s disease” (Science Advances, 2020).

Target: T1, amyloid-β 42 (Aβ42), monomeric (Homo sapiens, UniProt P05067)
T1 construct: gene APP; Aβ42, monomeric 42-residue peptide, N-terminally biotinylated for BLI
Assay: biolayer interferometry (kon/koff global fit); supported by 2D HN-BESTCON NMR and dot-blot sequestration fit (Kd […])
Format: binding

T1 sequence (P05067 672-713): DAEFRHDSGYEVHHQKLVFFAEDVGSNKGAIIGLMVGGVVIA

O=[N+]([O-])c1ccc(Nc2ccccc2-c2ccccc2)c2nonc12 [10074-G5, biphenyl-2-yl-(7-nitro-benzo[1,2,5]oxadiazol-4-yl)-amine]
Kd: 6 µM
